Measured values reported in US12662489B2 (Sitryx Therapeutics Limited, priority 2023, dated 2026).

Legend:
[1] = target: T1, MTHFD1 recombinant human enzyme (Homo sapiens, UniProt P11586); assay: MTHFD1 inhibition assay (NAD(P)H-Glo luminescence); settings: MTHFD1 IC50, recombinant human enzyme 200 nM, NADP, band
T1 sequence (P11586 2-291 limits assumed): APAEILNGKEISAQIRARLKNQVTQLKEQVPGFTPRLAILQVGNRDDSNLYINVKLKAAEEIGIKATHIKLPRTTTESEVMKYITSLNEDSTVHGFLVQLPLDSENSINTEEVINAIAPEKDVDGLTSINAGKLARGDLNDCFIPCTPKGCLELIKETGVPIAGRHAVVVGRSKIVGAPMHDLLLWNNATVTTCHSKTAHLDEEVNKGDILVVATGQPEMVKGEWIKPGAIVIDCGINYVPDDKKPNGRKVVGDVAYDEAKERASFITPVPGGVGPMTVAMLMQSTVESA

[2] = target: T2, MTHFD2 recombinant human enzyme (Homo sapiens, UniProt P13995); assay: MTHFD2 inhibition assay (NAD(P)H-Glo luminescence); settings: for MTHFD1/MTHFD2 IC50 ratio: selectivity of MTHFD2 inhibition over MTHFD1, band
T2 sequence (P13995 36-350): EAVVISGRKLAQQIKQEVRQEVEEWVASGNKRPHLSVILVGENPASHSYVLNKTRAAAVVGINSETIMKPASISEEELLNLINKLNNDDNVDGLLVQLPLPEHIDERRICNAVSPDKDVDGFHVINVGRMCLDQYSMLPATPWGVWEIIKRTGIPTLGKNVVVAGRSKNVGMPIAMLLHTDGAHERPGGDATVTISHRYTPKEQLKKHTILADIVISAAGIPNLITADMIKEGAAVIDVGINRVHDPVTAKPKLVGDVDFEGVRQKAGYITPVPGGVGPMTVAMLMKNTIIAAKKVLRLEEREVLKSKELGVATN

Row | SMILES | IC50 [1] | IC50 [2] | MTHFD1/MTHFD2 IC50 ratio [2]
1 | COC[C@H]1CN(c2cc(C)c3c4c(c(=O)oc3c2C)CN(C(=O)c2ccc(C(=O)NS(=O)(=O)N(C)C)c(O[C@@H]3C[C@@H]5C[C@@H]5C3)c2F)CC4)CCN1C [Example 11, 2-(((1R,3r,5S)-bicyclo[3.1.0]hexan-3-yl)oxy)-N-(N,N-dimethylsulfamoyl)-3-fluoro-4-(8-((R)-3-(methoxymethyl)-4-methylpiperazin-1-yl)-7,10-dimethyl-5-oxo-1,3,4,5-tetrahydro-2H-chromeno[3,4-c]pyridine-3-carbonyl)benzamide] | 1 to 10 nM | 1 to 10 nM | F (<3)
2 | COC[C@H]1CN(c2ccc3c4c(c(=O)oc3c2Cl)CN(C(=O)c2ccc(C(=O)NS(=O)(=O)C3(C)CC3)c(OC3CCCC3)c2F)CC4)CCN1C [Example 57, (R)-4-(7-chloro-8-(3-(methoxymethyl)-4-methylpiperazin-1-yl)-5-oxo-1,3,4,5-tetrahydro-2H-chromeno[3,4-c]pyridine-3-carbonyl)-2-(cyclopentyloxy)-3-fluoro-N-((1-methylcyclopropyl)sulfonyl)benzamide] | 1 to 10 nM | 1 to 10 nM | F (<3)
3 | CCOc1c(C(=O)NS(=O)(=O)N2CCCCC2)ccc(C(=O)N2CCc3c(c(=O)oc4c(C)c(N5CCN(C)[C@@H](COC)C5)ccc34)C2)c1F [Example 198, (R)-2-ethoxy-3-fluoro-4-(8-(3-(methoxymethyl)-4-methylpiperazin-1-yl)-7-methyl-5-oxo-1,3,4,5-tetrahydro-2H-chromeno[3,4-c]pyridine-3-carbonyl)-N-(piperidin-1-ylsulfonyl)benzamide] | 100 to 1000 nM | 100 to 1000 nM | F (<3)
4 | COC[C@H]1CN(c2ccc3c4c(c(=O)oc3c2C)CN(C(=O)c2ccc(C(=O)NS(=O)(=O)N3CCCC3)c(OC3CCC3)c2F)CC4)CCN1C1CC1 [Example 173, (R)-2-cyclobutoxy-4-(8-(4-cyclopropyl-3-(methoxymethyl)piperazin-1-yl)-7-methyl-5-oxo-1,3,4,5-tetrahydro-2H-chromeno[3,4-c]pyridine-3-carbonyl)-3-fluoro-N-(pyrrolidin-1-ylsulfonyl)benzamide] | 1000 to 5000 nM | 1000 to 5000 nM | F (<3)

The next lines start with the values.

Row | IC50 [1] | IC50 [2] | MTHFD1/MTHFD2 IC50 ratio [2] | SMILES
5 | 10 to 100 nM | 1 to 10 nM | G (^ 3 to 9.0) | COC[C@H]1CN(c2cc(C)c3c4c(c(=O)oc3c2C)CN(C(=O)c2ccc(C(=O)NS(=O)(=O)C3(C)CC3)c(N3CCC(C)(C)C3)c2)CC4)CCN1C [Example 87, (R)-2-(3,3-dimethylpyrrolidin-1-yl)-4-(8-(3-(methoxymethyl)-4-methylpiperazin-1-yl)-7,10-dimethyl-5-oxo-1,3,4,5-tetrahydro-2H-chromeno[3,4-c]pyridine-3-carbonyl)-N-((1-methylcyclopropyl)sulfonyl)benzamide]
6 | 100 to 1000 nM | 10 to 100 nM | H (>9.0 to 30) | COC[C@H]1CN(c2cc(Cl)c3c4c(c(=O)oc3c2C)CN(C(=O)c2cc(N(C)C)c(C(=O)NS(=O)(=O)N3CCC5(CC5)C3)cc2F)CC4)CCN1C [Example 274, (R)-N-((5-azaspiro[2.4]heptan-5-yl)sulfonyl)-4-(10-chloro-8-(3-(methoxymethyl)-4-methylpiperazin-1-yl)-7-methyl-5-oxo-1,3,4,5-tetrahydro-2H-chromeno[3,4-c]pyridine-3-carbonyl)-2-(dimethylamino)-5-fluorobenzamide]
7 | 1 to 10 nM | 1 to 10 nM | F (<3) | COC[C@H]1CN(c2cc(C)c3c4c(c(=O)oc3c2C)CN(C(=O)c2ccc(C(=O)NS(=O)(=O)N(C)C)c(N3CCC(C)(C)C3)c2)CC4)CCN1C [Example 88, (R)-2-(3,3-dimethylpyrrolidin-1-yl)-N-(N,N-dimethylsulfamoyl)-4-(8-(3-(methoxymethyl)-4-methylpiperazin-1-yl)-7,10-dimethyl-5-oxo-1,3,4,5-tetrahydro-2H-chromeno[3,4-c]pyridine-3-carbonyl)benzamide]
